These results are taken from US10272098B2, “Chelated drug delivery systems” (Drexel University, priority 2013, dated 2019).

The conditions of series [1]: cited from earlier work.
Series [2] concerns MDA-MB-231 cells. Kind of series: Fresh DOX dose- and time-dependent treatment.
Series [3] relates to NIH 3T3 fibroblasts. As to the kind of experiment: Fresh DOX dose- and time-dependent treatment. Format: cell-based. The conditions noted are these: nine-day treatment with 0.2 μg/mL DOX; vs untreated control. From the text:
The medium was changed every 24 hr.

For series [4], the system named is 3T3 fibroblast cells. Kind of series: Cytotoxicity cell counting assay in 3T3 fibroblasts. The class given is cell-based. The conditions noted are these: 24 h; complex with 4 μg MH in 100 μl or 40 μg/mL fresh MH; vs untreated control. Here is the method:
After 24 h, cell viability was determined using a cell counting assay (Roche) according to the manufacturer's instruction, and cell morphology was imaged by staining the cells with cresyl violet (0.5 mg/mL) for 30 min after the cells were fixed. In vitro cytotoxicity of the polyelectrolyte MH/DS/metal ion complexes were studied by using 3T3 fibroblast cells. […] Cell morphology was examined after treatment with MH/DS/metal ion complexes (FIGS. 7C-7F).

The conditions of series [5]: systemic administration of 200 mg MH daily (3 mg/kg); human subjects; cited from earlier work.

Where a name gives a salt, the structure may show the parent alone.

`COc1cccc2c1C(=O)c1c(O)c3c(c(O)c1C2=O)C[C@@](O)(C(=O)CO)C[C@@H]3O[C@H]1C[C@H](N)[C@H](O)[C@H](C)O1` [DOX, doxorubicin]: the “time stock solution is stable” value in series [1] (4 degree) is listed as 1 month. Moreover, the DOX degraded in series [1] (cell culture medium at 37° C., 4 days) is given as 30%-40%. Besides, in series [1] (room temperature, Adriamycin instruction booklets), the “time solution is stable” value is 7 days. The “time in which all the cancer cells were completely killed” value in series [2] (DOX 0.2 μg/mL) is recorded as 8 days. For the same compound, the “DOX concentration range that effectively kills cancer cells with minimal fibroblast cytotoxicity” value in series [2] (for 5-9 days) was 0.1 to 0.4 µg/mL. Besides, the “cell viability of fibroblasts” value in series [3] is listed as “did not significantly reduce the cell viability”.
For the compound `CN(C)c1ccc(O)c2c1C[C@H]1C[C@H]3[C@H](N(C)C)C(O)=C(C(N)=O)C(=O)[C@@]3(O)C(O)=C1C2=O` [MH, Minocycline hydrochloride], the “3T3 fibroblast viability (cell counting assay)” value in series [4] is “no significant difference”. Besides, in series [5], the “MH in the cerebrospinal fluid (CSF)” value was “about 0.5 μg/mL”.
